According to patent publication US20180327402A1, “TRIAZOLOPYRIDINE COMPOUNDS AND METHODS OF USE THEREOF” (Genentech, Inc., priority 2015, published 2018):
Counter-ions that a name gives are not always drawn.

Key:
[1] = molecular target: T1, isolated recombinant JAK2 kinase domain (Homo sapiens, UniProt O60674); assay: JAK enzyme assay (Caliper LabChip), JAK2; type: biochemical; settings: 0.2 nM JAK2, ATP 25 μM, 22° C., 30 minutes; Morrison tight binding model
T1 construct: isolated recombinant JAK1 and JAK2 kinase domain
Procedure: (§1) The activity of the isolated recombinant JAK1 and JAK2 kinase domain was measured by monitoring phosphorylation of a peptide derived from JAK3 (Val-Ala-Leu-Val-Asp-Gly-Tyr-Phe-Arg-Leu-Thr-Thr, fluorescently labeled on the N-terminus with 5-carboxyfluorescein) using the Caliper LabChip® technology (Caliper Life Sciences, Hopkinton, Mass.). To determine inhibition constants (Ki), compounds were diluted serially in DMSO and added to 50 μL kinase reactions containing purified enzyme (1.5 nM JAK1, or 0.2 nM JAK2), 100 mM HEPES buffer (pH 7.2), 0.015% Brij-35, 1.5 μM peptide substrate, ATP (25 μM), 10 mM MgCl2, 4 mM DTT at a final DMSO concentration of 2%. Reactions were incubated at 22° C. in 384-well polypropylene microtiter plates for 30 minutes and then stopped by addition of 25 μL of an EDTA containing solution (100 mM HEPES buffer (pH 7.2), 0.015% Brij-35, 150 mM EDTA), resulting in a final EDTA concentration of 50 mM. After termination of the kinase reaction, the proportion of phosphorylated product was determined as a fraction of total peptide substrate using the Caliper LabChip® 3000 according to the manufacturer's specifications. Ki values were then determined using the Morrison tight binding model (Morrison, J. F., Biochim. Biophys. Acta. 185:269-296 (1969); William, J. W. and Morrison, J. F., Meth. Enzymol., 63:437-467 (1979)) modified for ATP-competitive inhibition [Ki ═Ki,app/(1+[ATP]/Km,app)].

[2] = molecular target: T2, isolated recombinant JAK1 kinase domain (Homo sapiens, UniProt P23458); assay: JAK enzyme assay (Caliper LabChip), JAK1; type: biochemical; settings: 1.5 nM JAK1, ATP 25 μM, 22° C., 30 minutes; Morrison tight binding model
T2 construct: isolated recombinant JAK1 and JAK2 kinase domain
Procedure: as §1

T1 sequence (O60674 849-1124 limits assumed): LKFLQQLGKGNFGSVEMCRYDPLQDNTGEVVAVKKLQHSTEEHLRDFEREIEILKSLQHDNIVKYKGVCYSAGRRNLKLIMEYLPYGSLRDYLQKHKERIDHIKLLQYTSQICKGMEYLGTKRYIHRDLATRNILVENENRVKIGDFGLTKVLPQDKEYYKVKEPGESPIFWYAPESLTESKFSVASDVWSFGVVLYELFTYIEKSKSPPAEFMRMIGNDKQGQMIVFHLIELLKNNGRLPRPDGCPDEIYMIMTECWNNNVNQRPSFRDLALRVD
T2 sequence (P23458 875-1153 limits assumed): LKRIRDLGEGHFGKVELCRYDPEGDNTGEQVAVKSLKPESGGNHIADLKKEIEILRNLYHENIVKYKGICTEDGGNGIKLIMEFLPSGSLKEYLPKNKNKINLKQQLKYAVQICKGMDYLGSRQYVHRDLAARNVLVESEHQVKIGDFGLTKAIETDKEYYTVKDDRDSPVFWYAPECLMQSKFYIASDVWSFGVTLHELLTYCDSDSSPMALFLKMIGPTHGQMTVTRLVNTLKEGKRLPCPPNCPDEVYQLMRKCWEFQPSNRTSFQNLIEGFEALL

| Structure (SMILES) | Ki [1] [nM] | Ki [2] [nM] |
| --- | --- | --- |
| Cn1cc(Nc2nc3c(N4CCC(c5ccc(Cl)cc5)(C(O)CN5CCOCC5)CC4)cccn3n2)cn1 (racemic) [B, 1-[4-(4-chlorophenyl)-1-[2-[(1-methylpyrazol-4-yl)amino]-[1,2,4]triazolo[1,5-a]pyridin-8-yl]-4-piperidyl]-2-morpholino-ethanol] | 0.58 | 0.97 |
| CN(C)CC(O)C1(c2ccc(Cl)cc2)CCN(c2cccn3nc(Nc4cnn(C)c4)nc23)CC1 (racemic) [C, 1-[4-(4-chlorophenyl)-1-[2-[(1-methylpyrazol-4-yl)amino]-[1,2,4]triazolo[1,5-a]pyridin-8-yl]-4-piperidyl]-2-(dimethylamino)ethanol] | 2.9 | 1.8 |
| OCC1(c2ccc(Cl)cc2)CCN(c2cccn3nc(Nc4cnn(C5CCN(Cc6ccccc6)CC5)c4)nc23)CC1 [Compound 1-3, [1-[2-[[1-(1-benzyl-4-piperidyl)pyrazol-4-yl]amino]-[1,2,4]triazolo[1,5-a]pyridin-8-yl]-4-(4-chlorophenyl)-4-piperidyl]methanol; formic acid] | 0.38 | 0.63 |
| CN(C)CCCn1cc(Nc2nc3c(N4CCC(CO)(c5ccc(Cl)cc5)CC4)cccn3n2)cn1 [Compound 1-8, [4-(4-chlorophneyl)-1-[2-[[1-[3-(dimethylamino)propyl]pyrazol-4-yl]amino]-[1,2,4]triazolo[1,5-a]pyridin-8-yl]-4-piperidyl]methanol; formic acid] | 0.22 | 0.56 |
| CN1CCN(CCCn2cc(Nc3nc4c(N5CCC(CO)(c6ccc(Cl)cc6)CC5)cccn4n3)cn2)CC1 [Compound 1-9, [4-(4-chlorophenyl)-1-[2-[[1-[3-(4-methylpiperazin-1-yl)propyl]pyrazol-4-yl]amino]-[1,2,4]triazolo[1,5-a]pyridin-8-yl]-4-piperidyl]methanol; formic acid] | 0.26 | 0.55 |
| CCCCn1cc(Nc2nc3c(N4CCC(CO)(c5ccc(Cl)cc5)CC4)cccn3n2)cn1 [Compound 1-11, [1-[2-[(1-butylpyrazol-4-yl)amino]-[1,2,4]triazolo[1,5-a]pyridin-8-yl]-4-(4-chlorophenyl)-4-piperidyl]methanol] | 0.31 | 0.42 |
| CN1CCC(n2cc(Nc3nc4c(N5CCC(CO)(c6ccc(Cl)cc6)CC5)cccn4n3)cn2)CC1 [Compound 1-12, [4-(4-chlorophenyl)-1-[2-[[1-(1-methyl-4-piperidyl)pyrazol-4-yl]amino]-[1,2,4]triazolo[1,5-a]pyridin-8-yl]-4-piperidyl]methanol; formic acid] | 0.19 | 0.27 |
| CC(C)CCn1cc(Nc2nc3c(N4CCC(CO)(c5ccc(Cl)cc5)CC4)cccn3n2)cn1 [Compound 1-13, [4-(4-chlorophenyl)-1-[2-[(1-isopentylpyrazol-4-yl)amino]-[1,2,4]triazolo[1,5-a]pyridin-8-yl]-4-piperidyl]methanol; formic acid] | 0.44 | 0.75 |
| O=C(CCC(F)(F)F)N1CC=C(c2cccn3nc(Nc4cnn(CC(F)F)c4)nc23)CC1 [Compound 2-1, 1-[4-[2-[[1-(2,2-difluoroethyl)pyrazol-4-yl]amino]-[1,2,4]triazolo[1,5-a]pyridin-8-yl]-3,6-dihydro-2H-pyridin-1-yl]-4,4,4-trifluoro-butan-1-one] | 0.88 | 0.74 |
| O=C(CCC(F)(F)F)N1CC=C(c2cccn3nc(Nc4cnn(CCO)c4)nc23)CC1 [Compound 2-2, 4,4,4-trifluoro-1-[4-[2-[[1-(2-hydroxyethyl)pyrazol-4-yl]amino]-[1,2,4]triazolo[1,5-a]pyridin-8-yl]-3,6-dihydro-2H-pyridin-1-yl]butan-1-one] | 0.71 | 0.87 |

These reach a lower Ki [1]. Values come first.

| Ki [1] [nM] | Ki [2] [nM] | Structure (SMILES) |
| --- | --- | --- |
| 0.16 | 0.52 | OCC1(c2ccc(Cl)cc2)CCN(c2cccn3nc(Nc4cnn(CCN5CCOCC5)c4)nc23)CC1 [Compound 1-2, [4-(4-chlorophenyl)-1-[2-[[1-(2-morpholinoethyl)pyrazol-4-yl]amino]-[1,2,4]triazolo[1,5-a]pyridin-8-yl]-4-piperidyl]methanol; formic acid] |
| 0.16 | 0.33 | OCC1(c2ccc(Cl)cc2)CCN(c2cccn3nc(Nc4cnn(CCCN5CCOCC5)c4)nc23)CC1 [Compound 1-10, [4-(4-chlorophenyl)-1-[2-[[1-(3-morpholinopropyl)pyrazol-4-yl]amino]-[1,2,4]triazolo[1,5-a]pyridin-8-yl]-4-piperidyl]methanol; formic acid] |
| 0.13 | 0.18 | Cn1cc(Nc2nc3c(N4CCC(CO)(c5ccc(Cl)cc5)CC4)cccn3n2)cn1 [A, [4-(4-chlorophenyl)-1-[2-[(1-methylpyrazol-4-yl)amino]-[1,2,4]triazolo[1,5-a]pyridin-8-yl]-4-piperidyl]methanol] |
| 0.13 | 0.16 | OCC1(c2ccc(Cl)cc2)CCN(c2cccn3nc(Nc4cnn(CC(F)F)c4)nc23)CC1 [Compound 1-14, [4-(4-chlorophenyl)-1-[2-[[1-(2,2-difluoroethyl)pyrazol-4-yl]amino]-[1,2,4]triazolo[1,5-a]pyridin-8-yl]-4-piperidyl]methanol] |
| 0.12 | 0.23 | OCC1(c2ccc(Cl)cc2)CCN(c2cccn3nc(Nc4cnn(C5CCNCC5)c4)nc23)CC1 [Compound 1-5, [4-(4-chlorophenyl)-1-[2-[[1-(4-piperidyl)pyrazol-4-yl]amino]-[1,2,4]triazolo[1,5-a]pyridin-8-yl]-4-piperidyl]methanol; formic acid] |
| 0.12 | 0.45 | OCC1(c2ccc(Cl)cc2)CCN(c2cccn3nc(Nc4cnn(Cc5ccncc5)c4)nc23)CC1 [Compound 1-6, [4-(4-chlorophenyl)-1-[2-[[1-(4-pyridylmethyl)pyrazol-4-yl]amino]-[1,2,4]triazolo[1,5-a]pyridin-8-yl]-4-piperidyl]methanol; formic acid] |
| 0.11 | 0.27 | N#CCCN1CCC(n2cc(Nc3nc4c(N5CCC(CO)(c6ccc(Cl)cc6)CC5)cccn4n3)cn2)CC1 [Compound 1-4, 3-[4-[4-[[8-[4-(4-chlorophenyl)-4-(hydroxymethyl)-1-piperidyl]-[1,2,4]triazolo[1,5-a]pyridin-2-yl]amino]pyrazol-1-yl]-1-piperidyl]propanenitrile] |
| 0.11 | 0.18 | OCCCn1cc(Nc2nc3c(N4CCC(CO)(c5ccc(Cl)cc5)CC4)cccn3n2)cn1 [Compound 1-7, 3-[4-[[8-[4-(4-chlorophenyl)-4-(hydroxymethyl)-1-piperidyl]-[1,2,4]triazolo[1,5-a]pyridin-2-yl]amino]pyrazol-1-yl]propan-1-ol] |
| 0.089 | 0.11 | OCCn1cc(Nc2nc3c(N4CCC(CO)(c5ccc(Cl)cc5)CC4)cccn3n2)cn1 [Compound 1-15, 2-[4-[[8-[4-(4-chlorophenyl)-4-(hydroxymethyl)-1-piperidyl]-[1,2,4]triazolo[1,5-a]pyridin-2-yl]amino]pyrazol-1-yl]ethanol] |
| 0.045 | 0.21 | OCC1(c2ccc(Cl)cc2)CCN(c2cccn3nc(Nc4cnn(CC5CCNCC5)c4)nc23)CC1 [Compound 1-1, [4-(4-chloropenyl)-1-[2-[[1-(4-piperidylmethyl)pyrazol-4-yl]amino]-[1,2,4]triazolo[1,5-a]pyridin-8-yl]-4-piperidyl]methanol; hydrochloride] |
